From publication PMC12865225 (Clinical and Translational Science, 2026)
“And” between values parts separate entries of the source, which are not always exact repeats. Equal entries are not always repeated. Marks after values point to notes of the source that are not given here.

How the values were obtained:
OAT4 = molecular target: T1, OAT4 (Homo sapiens, UniProt Q9NSA0); experiment: OAT4 inhibition, methotrexate uptake into HEK293 cells; format: cell-based; conditions: for Calculated R-value OAT4: R = I max,u/IC50, cut-off ≥ 0.02 (MATE threshold)
T1 construct: expressed in transfected cells; host or cells: HEK293 (recombinant baculovirus-mediated transduction)
T1 sequence (Q9NSA0 1-550): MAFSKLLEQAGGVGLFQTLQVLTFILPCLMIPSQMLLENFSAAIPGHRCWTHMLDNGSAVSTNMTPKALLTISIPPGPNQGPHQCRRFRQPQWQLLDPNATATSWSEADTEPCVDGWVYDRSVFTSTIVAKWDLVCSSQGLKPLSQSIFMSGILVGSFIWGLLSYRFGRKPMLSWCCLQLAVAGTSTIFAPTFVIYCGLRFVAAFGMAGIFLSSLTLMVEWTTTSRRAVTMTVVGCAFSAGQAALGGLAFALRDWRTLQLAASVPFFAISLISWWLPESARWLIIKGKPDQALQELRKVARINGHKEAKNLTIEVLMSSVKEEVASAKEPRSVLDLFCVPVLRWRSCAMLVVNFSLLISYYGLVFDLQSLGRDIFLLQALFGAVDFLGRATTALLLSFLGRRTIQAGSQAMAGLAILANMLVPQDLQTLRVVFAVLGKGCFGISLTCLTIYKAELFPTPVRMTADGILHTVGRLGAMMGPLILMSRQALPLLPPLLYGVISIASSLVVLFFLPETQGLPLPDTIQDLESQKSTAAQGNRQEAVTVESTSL
Procedure: The human transporters OATP1B1, OATP1B3, OATP2B1, and OAT1‐OAT4 and a negative control protein (enhanced yellow fluorescent protein, eYFP) were transiently expressed in human embryonic kidney 293 (HEK293) cells by recombinant baculovirus‐mediated transduction. Baculoviruses carrying human genes for the transporters were prepared as reported previously. HEK293 cells were cultured in DMEM containing 10% fetal bovine serum at 37°C and 5% CO2 and passaged two to three times per week. For the transport studies, 0.05 × 10^6 cells for 48‐well plates (OATPs) or 0.06 × 10^6 cells for 24‐well plates (OATs) were seeded onto cell‐culture treated well plates coated with poly‐D‐lysine. After 1 day, cells were transduced to produce recombinant proteins by changing media to DMEM containing 30 μL (48‐well plates) or 60 μL (24‐well plates) of recombinant baculovirus and 3 mM (OATs) or 5 mM (OATPs) sodium butyrate in a total media volume of 500 μL. The cells were cultured for a further 2 days before the transport assays.
For the transport studies, media were removed and cells were washed once with warm transport uptake buffer (TP‐buffer—pH 7.4 HBSS with 25 mM HEPES and 4 mM sodium bicarbonate). Each experiment included triplicate (OATP) or duplicate (OAT) samples for every test condition. […]
In the OATP inhibition assays, inhibitors in warm TP‐buffer were directly applied to cells after media removal, followed by a 30‐min preincubation step in the presence of inhibitors. […] OAT1 and OAT3 cells were lysed with 200 μL of 1 M sodium hydroxide for 10 min, and 150 μL of these samples were transferred to a black well plate for fluorescein quantification. […]
For the inhibition data analysis, the average of measured concentrations in the control cells was subtracted from the average of measured concentrations in transporter‐expressing cells for each inhibitor concentration and then normalized to the vehicle sample that represents 100% transport activity. […]

P-gp = molecular target: T2, P-gp (Homo sapiens, UniProt P08183); experiment: P-gp inhibition, N-methyl-quinidine transport in HEK293 membrane vesicles; format: biochemical; conditions: for Calculated R-value P-gp: R = I gut/IC50, FDA cut-off ≥ 10
T2 construct: made in house; host or cells: membrane vesicles from HEK293 cells expressing the transporter
T2 sequence (P08183 whole entry): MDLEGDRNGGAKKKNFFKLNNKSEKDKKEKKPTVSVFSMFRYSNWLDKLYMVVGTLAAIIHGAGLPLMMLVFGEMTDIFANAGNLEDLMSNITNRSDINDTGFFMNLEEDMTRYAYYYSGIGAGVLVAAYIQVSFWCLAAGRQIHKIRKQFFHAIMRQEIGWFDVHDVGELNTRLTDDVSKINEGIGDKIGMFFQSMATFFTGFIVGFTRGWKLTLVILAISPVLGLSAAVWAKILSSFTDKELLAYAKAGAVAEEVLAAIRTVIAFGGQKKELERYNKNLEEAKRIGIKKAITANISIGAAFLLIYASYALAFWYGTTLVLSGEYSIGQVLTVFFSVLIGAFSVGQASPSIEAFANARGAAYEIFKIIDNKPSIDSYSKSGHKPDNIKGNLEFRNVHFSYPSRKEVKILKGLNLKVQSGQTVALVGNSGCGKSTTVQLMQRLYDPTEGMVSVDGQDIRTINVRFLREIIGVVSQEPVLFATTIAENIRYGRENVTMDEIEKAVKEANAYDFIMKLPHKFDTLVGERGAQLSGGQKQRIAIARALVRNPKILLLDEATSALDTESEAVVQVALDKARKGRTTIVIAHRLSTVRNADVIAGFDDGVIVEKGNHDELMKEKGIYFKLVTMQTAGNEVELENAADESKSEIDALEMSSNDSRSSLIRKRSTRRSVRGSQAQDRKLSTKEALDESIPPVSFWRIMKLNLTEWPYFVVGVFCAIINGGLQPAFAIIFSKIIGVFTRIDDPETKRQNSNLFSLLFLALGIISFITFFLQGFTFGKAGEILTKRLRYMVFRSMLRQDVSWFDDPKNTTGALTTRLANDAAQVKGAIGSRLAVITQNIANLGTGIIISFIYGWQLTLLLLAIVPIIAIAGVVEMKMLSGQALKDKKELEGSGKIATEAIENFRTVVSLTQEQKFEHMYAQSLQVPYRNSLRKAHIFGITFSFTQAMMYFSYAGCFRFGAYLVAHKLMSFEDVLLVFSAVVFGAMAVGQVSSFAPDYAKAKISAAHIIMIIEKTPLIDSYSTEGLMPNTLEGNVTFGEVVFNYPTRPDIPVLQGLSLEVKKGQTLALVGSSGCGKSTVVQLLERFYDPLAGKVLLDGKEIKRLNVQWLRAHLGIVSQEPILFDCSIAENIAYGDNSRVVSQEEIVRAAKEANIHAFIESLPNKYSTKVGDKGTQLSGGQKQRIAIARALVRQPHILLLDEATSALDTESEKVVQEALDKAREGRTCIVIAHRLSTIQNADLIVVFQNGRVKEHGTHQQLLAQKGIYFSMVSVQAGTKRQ
Procedure: Membrane vesicles, 5 μL (7.5 μg of total protein), prepared as previously reported, were aliquoted to wells of a conical‐shaped 96‐well plate. The plate was incubated for 10 min at +37°C before the initiation of transport by adding 25 μL of TS‐buffer (10 mM Tris, 250 mM sucrose, pH adjusted to 7.4 with HEPES) containing magnesium chloride (10 mM final in the reaction), adenosine triphosphate (ATP) or adenosine monophosphate (AMP), 4 mM final in the reaction, and the transporter substrate and inhibitor. Each experiment included triplicate samples for both ATP and AMP samples. The concentrations of rosuvastatin and N‐methyl‐quinidine were 1 μM in the BCRP and P‐gp vesicle inhibition assays, respectively. The transport reaction times were 1 and 2 min for BCRP and P‐gp, respectively. […] The transport reactions were quenched by adding 200 μL of cold TS‐buffer to each well and transferring the samples to a 96‐multiwell 1.0 μm glass fiber filter plate (Merck Millipore, Darmstadt, Germany) kept under vacuum. Wells were further washed four times with cold TS‐buffer, after which the plate was dried under vacuum. The compounds were eluted from the plate by applying 100 μL of 75% methanol containing 0.1% formic acid to each well and incubating at 250 RPM for 30 min before centrifuging the samples to an analysis plate at 2800 g for 2 min. For the rosuvastatin samples, the elution solvent contained rosuvastin‐d6 as the internal standard.
For the inhibition data analysis, the average of measured concentrations in the control cells was subtracted from the average of measured concentrations in transporter‐expressing cells for each inhibitor concentration and then normalized to the vehicle sample that represents 100% transport activity. Equation (1) was fit to the inhibition data. In Equation (1), Inhibition represents the percent inhibition of transporter‐mediated uptake at an inhibitor concentration of I and IC50 is the half‐maximal inhibitory concentration. (1) Inhibition=100%−100%/1+10^logIC50−logI

Structure (SMILES)	Calculated R-value OAT4 (OAT4)	IC50 (P-gp; 1 μM N-methyl-quinidine, 2 min, membrane vesicles) [µM]	Calculated R-value P-gp (P-gp)	reduction of P-gp activity (P-gp; highest tested concentration of 2100 μM) [%]	IC50 (OAT4; IC50 (95% CI), μM OAT4, 34 nM methotrexate, 10 min, no preincubation)	inhibition of P-gp transport at the highest concentration (P-gp; highest concentration)
Cc1onc(-c2c(F)cccc2Cl)c1C(=O)N[C@@H]1C(=O)N2[C@@H]1SC(C)(C)[C@@H]2C(=O)O [Flucloxacillin]	0.08 ^d	≥ 833	11 ^b	65	–	–
Cc1onc(-c2c(Cl)cccc2Cl)c1C(=O)N[C@@H]1C(=O)N2[C@@H]1SC(C)(C)[C@@H]2C(=O)O [Dicloxacillin]	0.19 ^d	–	33 ^b	–	7.2 µM and 7.23 µM	almost completely inhibited
